Tests used:
Entamoeba histolytica = experiment: […] activity against Entamoeba histolytica HM-1:IMSS after 72 hrs by eosin-staining method; format: functional, organism-based
MCF7 = experiment: Cytotoxicity against human MCF7 cells after 48 hrs by MTT assay; format: cell-based; settings: MCF7, 48 h

**Q.** What does the source list for `COC(=O)c1ccccc1SCCn1c([N+](=O)[O-])cnc1C`?
**A.** IC50 (Entamoeba histolytica): 28 nM; IC50 (MCF7): > 250000 nM

**Q.** How did the IC50 (Entamoeba histolytica) turn out when `COC(=O)c1ccccc1[S+]([O-])CCn1c([N+](=O)[O-])cnc1C` (configuration not stated) was run?
**A.** 15 nM

**Q.** And the IC50 (MCF7)?
**A.** > 250000 nM

**Q.** With `COC(=O)c1ccccc1S(=O)(=O)CCn1c([N+](=O)[O-])cnc1C` as the compound, how does the IC50 (Entamoeba histolytica) read?
**A.** 21 nM

**Q.** What about the IC50 (MCF7) of the same compound?
**A.** > 250000 nM

**Q.** Which IC50 (MCF7) does the source give for `Cc1ncc([N+](=O)[O-])n1CCO` [METRONIDAZOLE] here?
**A.** > 250000 nM

Reference: ChEMBL document CHEMBL2062512, “Metronidazole thiosalicylate conjugates: synthesis, crystal structure, docking studies and antiamoebic activity” (Bioorg Med Chem Lett, 2012)
